In patent US10844049B2, “GLP-1R agonists and uses thereof” (QILU REGOR THERAPEUTICS INC., priority 2018, dated 2020) one finds EC50 data, which are given here for 19 molecules.

For experiment [1], the target named is T1, GLP1R (Homo sapiens, UniProt P43220). Description: GLP1R cAMP HTRF assay, HEK293/GLP-1R/CRE/Luc (HEK293T cells). The settings on record: read-out: EC50. In kind it is cell-based. The essentials: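 cAMP accumulation via HTRF after 30 min, 37 °C exposure of 1000 receptor-expressing cells/well to compound (0.5% DMSO final) in IBMX (500 μM)/0.1% BSA DPBS.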
On the technique in general: TR-FRET usually uses a lanthanide donor and a delayed reading to cut background.

The target of experiment [2] is T1, GLP1R. As to the kind of experiment: GLP1R cAMP assay, CHO cells stably expressing human GLP-1R. In kind it is cell-based. The settings on record: CHO cells stably expressing GLP-1R, read-out: CHO cAMP stable EC50. The protocol:
GLP-1R-mediated agonist activity was determined with a cell-based functional assay utilizing an HTRF (Homogeneous Time-Resolved Fluorescence) cAMP detection kit (cAMP Dynamic 2 Assay Kit; CisBio cat #62AM4PEC) that measures cAMP levels in the cell. The method is a competitive immunoassay between native cAMP produced by the cells and exogenous cAMP labeled with the dye d2. The tracer binding is visualized by a mAb anti-cAMP labeled with Cryptate. The specific signal (i.e., energy transfer) is inversely proportional to the concentration of cAMP in either standard or experimental sample.
Varying concentrations of each compound to be tested (in DMSO) were diluted in DMSO to obtain 200× compound working solution first and then 50 nl compounds were added to a white 384-well assay plate (Greiner 784075) with ECHO. The final DMSO concentration was 0.5%. The compound concentration range may be adjusted at any time.
Cells were removed from cryopreservation, re-suspended in 5 mL of Dulbecco's Phosphate Buffered Saline (DPBS-Sigma Cat # D8537) and centrifuged at 900 g for 5 min at 22° C. The cell pellet was then re-suspended in 1 mL of assay buffer [DPBS with 500 μM IBMX (Sigma #15879) and 0.1% BSA (Sigma # A1933). IBMX and BSA were freshly added on the day of assay]. A 10 μL sample of the cell suspension was counted on an Invitrogen Countess II to determine cell viability and cell count per mL. The remaining cell suspension was then adjusted with assay buffer to deliver 1000 viable cells per well using a Matrix Combi Multidrop reagent dispenser. 10 μL cell suspensions were added to each well of the assay plate which already contains compound. The plate was sealed and incubated at 37° C. with 5% CO2 for 30 minutes.
Following the 30 minute incubation, 5 μL of labeled d2 cAMP and 5 μL of anti-cAMP antibody (both diluted 1:20 in cell lysis buffer; as described in the manufacturer's assay protocol) were added to each well of the assay plate. The plates w ere then incubated at room temperature and after 60 minutes, changes in the HTRF signal were read with an Envision multi-label plate reader using excitation of 330 nm and emissions of 615 and 665 nm. Raw data were converted to nM cAMP by interpolation from a cAMP standard curve (as described in the manufacturer's assay protocol) and the percent effect was determined relative to a saturating concentration of the full agonist GLP-17-37 (10 nM) included on each plate. EC50 determinations were made from agonist dose-response curves analyzed with a curve fitting program using a 4-parameter logistic dose response equation. […]

A value given as a limit tells only on which side of the number the result lay.

T1 sequence (P43220 24-463): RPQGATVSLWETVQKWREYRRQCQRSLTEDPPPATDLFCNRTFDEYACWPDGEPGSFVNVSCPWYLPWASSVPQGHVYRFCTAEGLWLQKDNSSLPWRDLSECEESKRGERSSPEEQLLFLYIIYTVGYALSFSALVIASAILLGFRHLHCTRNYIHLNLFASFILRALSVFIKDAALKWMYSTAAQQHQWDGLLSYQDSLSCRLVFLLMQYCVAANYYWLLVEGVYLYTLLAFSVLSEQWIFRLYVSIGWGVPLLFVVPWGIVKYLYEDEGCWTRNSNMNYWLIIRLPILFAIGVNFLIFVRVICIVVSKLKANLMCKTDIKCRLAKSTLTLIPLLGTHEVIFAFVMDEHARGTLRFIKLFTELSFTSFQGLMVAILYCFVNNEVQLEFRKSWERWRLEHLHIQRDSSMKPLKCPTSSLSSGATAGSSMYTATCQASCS

By EC50 is commonly meant the concentration needed to bring the measured effect to its halfway point. As to `O=C(O)c1ccc2nc(CN3CCC(c4ccnc(OCc5ccc(Cl)cc5F)n4)CC3)n(C[C@@H]3CCO3)c2c1` [Compound 18, (S)-2-((4-(2-((4-chloro-2-fluorobenzyl)oxy)pyrimidin-4-yl)piperidin-1-yl)methyl)-1-(oxetan-2-ylmethyl)-1H-benzo[d]imidazole-6-carboxylic acid], the EC50 in experiment [1] was no more than 0.015 µM; in experiment [2], no more than 0.15 µM.

In the case of `N#Cc1ccc(COc2cccc(C3=CCN(Cc4nc5ccc(C(=O)O)cc5n4C[C@@H]4CCO4)CC3)n2)c(F)c1` [Compound 19, (S)-2-((4-(6-(4-cyano-2-fluorobenzyloxy)pyridin-2-yl)-5,6-dihydropyridin-1(2H)-yl)methyl)-1-(oxetan-2-ylmethyl)-1 h-benzo[d]imidazole-6-carboxylic add], the EC50 in experiment [1] and in experiment [2] was no more than 0.015 µM each time.

Regarding `O=C(O)c1ccc2nc(CN3CCC(c4cncc(OCc5ccc(Cl)cc5F)n4)CC3)n(C[C@@H]3CCO3)c2c1` [Compound 21, (S)-2-((4-(6-(4-chloro-2-fluorobenzyloxy)pyrazin-2-yl)piperidin-1-yl)methyl)-1-(oxetan-2-ylmethyl)-1 h-benzo[d]imidazole-6-carboxylic acid], the results for the EC50 in experiment [1] and in experiment [2] were no more than 0.015 µM and no more than 1 µM, respectively.

As to `N#Cc1ccc(COc2cncc(C3CCN(Cc4nc5ccc(C(=O)O)cc5n4C[C@@H]4CCO4)CC3)n2)c(F)c1` [Compound 22, (S)-2-((4-(6-(4-cyano-2-fluorobenzyloxy)pyrazin-2-yl)piperidin-1-yl)methyl)-1-(oxetan-2-ylmethyl)-1 h-benzo[d]imidazole-6-carboxylic acid], the EC50 in experiment [1] is no more than 0.15 µM; in experiment [2] it was no more than 1 µM.

Turning to `N#Cc1ccc(COc2cncc(C3=CCN(Cc4nc5ccc(C(=O)O)cc5n4C[C@@H]4CCO4)CC3)n2)c(F)c1` [Compound 23, (S)-2-((4-(6-(4-cyano-2-fluorobenzyloxy)pyrazin-2-yl)-5,6-dihydropyridin-1(2H)-yl)methyl)-1-(oxetan-2-ylmethyl)-1 h-benzo[d]imidazole-6-carboxylic acid], the EC50 was no more than 0.015 µM in experiment [1] and no more than 1 µM in experiment [2].

Turning to `O=C(O)c1ccc2nc(CN3CC=C(c4cccc(OCc5ccc(Cl)cc5F)c4)CC3)n(C[C@@H]3CCO3)c2c1` [Compound 28, (S)-2-((4-(3-((4-chloro-2-fluorobenzyl)oxy)phenyl)-3,6-dihydropyridin-1(2H)-yl)methyl)-1-(oxetan-2-ylmethyl)-1 h-benzo[d]imidazole-6-carboxylic add], the values for the 50% effective concentration (EC50) in experiment [1] and in experiment [2] were no more than 0.015 µM and no more than 0.15 µM, respectively.

As to `O=C(O)c1ccc2nc(CN3CC=C(c4ccc(F)c(OCc5ccc(Cl)cc5F)c4)CC3)n(C[C@@H]3CCO3)c2c1` [Compound 29, (S)-2-((4-(3-((4-chloro-2-fluorobenzyl)oxy)-4-fluorophenyl)-3,6-dihydropyridin-1(2H)-yl)methyl)-1-(oxetan-2-ylmethyl)-1 h-benzo[d]imidazole-6-carboxylic acid], the EC50 in experiment [1] is no more than 0.015 µM; in experiment [2] it was no more than 0.15 µM.

For `O=C(O)c1ccc2nc(CN3CC=C(c4cncc(OCc5ccc(Cl)cc5F)n4)CC3)n(C[C@@H]3CCO3)c2c1` [Compound 34, (S)-2-((4-(6-(4-chloro-2-fluorobenzyloxy)pyrazin-2-yl)-5,6-dihydropyridin-1(2H)-yl)methyl)-1-(oxetan-2-ylmethyl)-1 h-benzo[d]imidazole-6-carboxylic acid], the EC50 in experiment [1] was no more than 0.015 µM; in experiment [2], no more than 0.15 µM.

As for `O=C(O)c1ccc2nc(CN3CC=C(c4ccnc(OCc5ccc(Cl)cc5F)n4)CC3)n(C[C@@H]3CCO3)c2c1` [Compound 35, (S)-2-((4-(2-((4-chloro-2-fluorobenzyl)oxy)pyrimidin-4-yl)-3,6-dihydropyridin-1(2H)-yl)methyl)-1-(oxetan-2-ylmethyl)-1H-benzo[d]imidazole-6-carboxylic add], the EC50 was no more than 0.015 µM in experiment [1] and no more than 0.15 µM in experiment [2].

`O=C(O)c1ccc2nc(CN3CC=C(c4cccc(OCc5ccc(Cl)cc5F)n4)CC3)n(C[C@@H]3CCO3)c2c1` [Compound 221, (S)-2-((6-((4-chloro-2-fluorobenzyl)oxy)-3′,6′-dihydro-[2,4′-bipyridin]-1′(2′H)-yl)methyl)-1-(oxetan-2-ylmethyl)-1H-benzo[d]imidazole-6-carboxylic acid]: the EC50 in experiment [1] and in experiment [2] was no more than 0.015 µM in each case.

As to `N#Cc1ccc(COc2nc(C3=CCN(Cc4nc5ccc(C(=O)O)cc5n4C[C@@H]4CCO4)CC3)ccc2F)c(F)c1` [Compound 222, (S)-2-((6-((4-cyano-2-fluorobenzyl)oxy)-5-fluoro-3′,6′-dihydro-[2,4′-bipyridin]-1′(2′H)-yl)methyl)-1-(oxetan-2-ylmethyl)-1H-benzo[d]imidazole-6-carboxylic acid], the EC50 in experiment [1] and in experiment [2] was no more than 0.015 µM throughout.

In the case of `O=C(O)c1ccc2nc(CN3CC=C(c4cccc(OCc5ccc(Cl)cc5F)c4)CC3)n(C[C@@H]3CCO3)c2n1` [Compound 224, (S)-2-((4-(3-((4-chloro-2-fluorobenzyl)oxy)phenyl)-3,6-dihydropyridin-1(2H)-yl)methyl)-3-(oxetan-2-ylmethyl)-3H-imidazo[4,5-b]pyridine-5-carboxylic acid], the results for the EC50 in experiment [1] and in experiment [2] were no more than 0.015 µM and no more than 0.15 µM, respectively.

As for `N#Cc1ccc(COc2cccc(C3=CCN(Cc4nc5ccc(C(=O)O)nc5n4C[C@@H]4CCO4)CC3)n2)c(F)c1` [Compound 225, (S)-2-((6-((4-cyano-2-fluorobenzyl)oxy)-3′,6′-dihydro-[2,4′-bipyridin]-1′(2′H)-yl)methyl)-3-(oxetan-2-ylmethyl)-3H-imidazo[4,5-b]pyridine-5-carboxylic add], the 50% effective concentration (EC50) in experiment [1] and in experiment [2] was no more than 0.015 µM each time.

On to `O=C(O)c1ccc2nc(CN3CC=C(c4ccc(F)c(OCc5ccc(Cl)cc5F)c4)CC3)n(C[C@@H]3CCO3)c2n1` [Compound 236, (S)-2-((4-(3-((4-chloro-2-fluorobenzyl)oxy)-4-fluorophenyl)-5,6-dihydropyridin-1(2H)-yl)methyl)-3-(oxetan-2-ylmethyl)-3H-imidazo[4,5-b]pyridine-5-carboxylic acid], for which the results for the EC50 in experiment [1] and in experiment [2] were no more than 0.015 µM and no more than 0.15 µM, respectively.

For `O=C(O)c1ccc2nc(CN3CC=C(c4cccc(OCc5ccc(Cl)cc5F)c4)CC3)n(C[C@@H]3CCO3)c2c1F` [Compound 237, (S)-2-((4-(3-((4-chloro-2-fluorobenzyl)oxy)phenyl)-3,6-dihydropyridin-1(2H)-yl)methyl)-7-fluoro-1-(oxetan-2-ylmethyl)-1H-benzo[d]imidazole-6-carboxylic acid], the concentration for a half-maximal effect (EC50) was no more than 0.015 µM in experiment [1] and no more than 0.15 µM in experiment [2].

Take `O=C(O)c1ccc2nc(CN3CC=C(c4ccc(F)c(OCc5ccc(Cl)cc5F)c4)CC3)n(C[C@@H]3CCO3)c2c1F` [Compound 238, (S)-2-((4-(3-((4-chloro-2-fluorobenzyl)oxy)-4-fluorophenyl)-3,6-dihydropyridin-1(2H)-yl)methyl)-7-fluoro-1-(oxetan-2-ylmethyl)-1H-benzo[d]imidazole-6-carboxylic acid]: the EC50 in experiment [1] is no more than 0.015 µM; in experiment [2] it was no more than 0.15 µM.

On to `O=C(O)c1ccc2nc(CN3CCC(c4cccc(OCc5ccc(Cl)cc5F)c4)CC3)n(C[C@@H]3CCO3)c2c1` [Compound 239, (S)-2-((4-(3-((4-chloro-2-fluorobenzyl)oxy)phenyl)piperidin-1-yl)methyl)-1-(oxetan-2-ylmethyl)-1H-benzo[d]imidazole-6-carboxylic acid], for which the EC50 in experiment [1] was no more than 0.015 µM; in experiment [2], no more than 0.15 µM.

Turning to `O=C(O)c1ccc2nc(CN3CC=C(c4cccc(OCc5ccc(-c6cccnc6)cc5)n4)CC3)n(C[C@@H]3CCO3)c2c1` [Compound 242, (S)-1-(oxetan-2-ylmethyl)-2-((6-((4-(pyridin-3-yl)benzyl)oxy)-3′,6′-dihydro-[2,4′-bipyridin]-1′(2′H)-yl)methyl)-1H-benzo[d]imidazole-6-carboxylic add], in experiment [1], the 50% effective concentration (EC50) was no more than 0.015 µM.

On to `O=C(O)c1ccc2nc(CN3CC=C(c4cccc(OCc5ccc(-n6ccnc6)cc5)n4)CC3)n(C[C@@H]3CCO3)c2n1` [Compound 245, (S)-2-((4-(6-(4-(1H-imidazol-1-yl)benzyloxy)pyridin-2-yl)-5,6-dihydropyridin-1(2H)-yl)methyl)-3-(oxetan-2-ylmethyl)-3H-imidazo[4,5-b]pyridine-5-carboxylic add], for which the EC50 in experiment [1] and in experiment [2] was no more than 0.015 µM in each case.
